Laboratory results as given in PMC9011347, “Small-Molecule Inhibitors Targeting Lipolysis in Human Adipocytes” (Journal of the American Chemical Society, 2022).
Read-outs that look alike come from different tables or passages of the source.

Columns and labels:
human ATGL (aa 1–288) = biological target: T1, human ATGL (aa 1–288) (Homo sapiens, UniProt Q96AD5); test: TAG hydrolase assay, wild-type and chimeric ATGL variants in Expi293 lysates; type: biochemical
T1 construct: human ATGL (aa 1–288); host or cells: Expi293 cells, crude lysate
Source text: Since experimental three-dimensional (3D) structures for ATGL are currently not available, we utilized chimeric variants of mouse and human ATGL for the identification of binding sites. The constructs c1–c9 (Figure 5a) comprised the N-terminal […] of ATGL, which are sufficient to retain enzymatic activity.[50] In variants c1 and c2, exchange of the N-terminal 158 aa between human and mouse ATGL switched inhibitor reactivity.
Figure 5 Analysis of chimeric proteins comprising human and mouse ATGL. (a) Schematic view of the minimal active domain of wild-type and chimeric ATGL variants (c1–c9). Nonidentical aa are indicated in blue and red for mouse and human ATGL, respectively. ATGL variants were expressed in Expi293 cells and TAG hydrolase activity was determined in cell lysates in the presence or absence of NG-497 (10 μM) and Atglistatin (10 μM), respectively. Inhibition of ATGL variants by respective inhibitors (tick mark) and lack of inhibition (cross) is indicated at the right edge. The expression of all ATGL variants was confirmed by Western blotting analysis (Figure S6). […]
Expression of recombinant ATGL constructs and preparation of cell lysates. […] Protein concentrations were determined using Bio-Rad protein assay (Bio-Rad 785, Bio-Rad Laboratories, Munich, Germany) using BSA as standard. […]

[1] = biological target: T2, Variant c4 (aa 1–69 of human ATGL) (Homo sapiens, UniProt Q96AD5, F97C/G146T/H109R/I93T/N133S/S106C/S111N/S158T/S96G/V101T); test: TAG hydrolase assay, chimeric ATGL variants; type: biochemical, human and mouse; details: variant c4, NG-497 (10 μM) or Atglistatin (10 μM)
T2 construct: host or cells: Expi293 cells, cell lysate
Experimental: (§1) Figure 5 Analysis of chimeric proteins comprising human and mouse ATGL. (a) Schematic view of the minimal active domain of wild-type and chimeric ATGL variants (c1–c9). Nonidentical aa are indicated in blue and red for mouse and human ATGL, respectively. ATGL variants were expressed in Expi293 cells and TAG hydrolase activity was determined in cell lysates in the presence or absence of NG-497 (10 μM) and Atglistatin (10 μM), respectively. Inhibition of ATGL variants by respective inhibitors (tick mark) and lack of inhibition (cross) is indicated at the right edge. The expression of all ATGL variants was confirmed by Western blotting analysis (Figure S6). (b) Dose-dependent inhibition of human ATGL (aa 1–288) and c1 (human aa 1–158 and mouse aa 159–288) by NG-497. (c) Dose-dependent inhibition of mouse ATGL (aa 1–288) and c2 (mouse aa 1–158 and human aa 159–288) by Ai. IC50 values are shown in the insets. Data are presented as relative inhibition of respective DMSO controls and are indicated as mean ± SD. (d) 3D homology model of the minimal active domain of mouse ATGL (M1–L254) depicted as a cartoon. Residues 1–178 are in blue, and residues 179–254 are in gray. S47 and D166 comprising the active site are represented as green sticks. T101, C106, R109, N111, and S133 are colored in orange, A60, N68, I69, T93, C97, and T146 are colored in magenta. TEXT PRINTED IN THE PICTURE: (b) NG-497: IC50 [μM] (human): 1.3±0.1; IC50 [μM] (c1): 1.3±0.1 | (b) Ai: IC50 [μM] (human): n.det.; IC50 [μM] (c1): n.det. | (c) NG-497: IC50 [μM] (mouse): n.det.; IC50 [μM] (c2): n.det. | (c) Ai: IC50 [μM] (mouse): 2.5±0.3; IC50 [μM] (c2): 2.4±0.1 […]
(§2) We next generated variants by further stepwise humanization of c2. Variant c3 containing aa 1–23 of human ATGL was inhibited by Ai but not NG-497 (Figure 5a). […] Finally, variants of mouse ATGL containing aa 1–146 (c7) and 60–146 (c8) of human ATGL were inhibited by NG-497 but not Ai (Figure 5a).
(§3) Experimental details, materials, and methods
(§4) Expression of recombinant ATGL constructs and preparation of cell lysates. Expi293 cells were cultivated in Expi293 Expression Medium (GIBCO, Thermo Fisher Scientific, Waltham, USA) at standard conditions (37°C, 5% CO2, 95% humidified atmosphere, 125 rpm). DNA constructs containing ATGL from different species and chimeric ATGL variants in pcDNA3.1(+)myc-His C Vector were obtained from BioCat GmbH (Heidelberg, Germany). Cells were transfected with ExpiFectamine293 Transfection Kit (GIBCO) in Opti-Mem reduced serum medium (GIBCO) according to the manufacturer’s instructions. After 48 h, cells were harvested by centrifugation and washed three times with PBS. Cells were disrupted in buffer A (0.25 M sucrose, 1 mM EDTA, 1 mM dithiothreitol, 20µg/ml leupeptin, 2 µg/ml antipain, 1 µg/ml pepstatin, pH 7.0) by sonication (Virsonic 475, Virtis, Gardiner, USA). Nuclei and debris were removed by centrifugation at 1,000 g and 4°C for 10 min. Protein concentrations were determined using Bio-Rad protein assay (Bio-Rad 785, Bio-Rad Laboratories, Munich, Germany) using BSA as standard.
(§5) Expression and purification of mouse CGI-58. CGI-58 was expressed and purified as described 1. In brief, the coding sequence of mouse Cgi-58 was cloned into pHis-Sumo and co-transformed with the plasmid pTf16 expressing the chaperone Tig into E. coli BL21(DE3). Cells were cultured overnight at 37°C and 180 rpm in the presence of 40 µg/ml kanamycin and 34 µg/ml chloramphenicol. Thereafter, cells were transferred into fresh LB medium, grown until OD600 of 0.6, and expression was induced by the addition of 0.5 mM IPTG. After overnight incubation at 30°C, cells were harvested at 4,500 x g and 4°C for 20 min, washed in 1x PBS, and resuspended in lysis buffer (20 mM Tris/HCl pH 7.8, 300 mM NaCl, 30 mM imidazole, 0.1% IGEPAL CA-630, 3.5 mM β-mercaptoethanol, 20 µg/ml leupeptin, 2 µg/ml antipain and 1 µg/ml pepstatin). Cells were incubated with 1 […]

[2] = biological target: T3, c5 (aa 1–111 of human ATGL) (Homo sapiens, UniProt Q96AD5, G146T/N133S/S158T); test: TAG hydrolase assay, chimeric ATGL variants; type: biochemical, human and mouse; details: variant c5, NG-497 (10 μM) or Atglistatin (10 μM)
T3 construct: host or cells: Expi293 cells, cell lysate
Experimental: as §1, §2, §3, §4, §5

[3] = biological target: T4, c6 (aa 1–133 of human ATGL) (Homo sapiens, UniProt Q96AD5, G146T/S158T); test: TAG hydrolase assay, chimeric ATGL variants; type: biochemical, human and mouse; details: variant c6, NG-497 (10 μM) or Atglistatin (10 μM)
T4 construct: host or cells: Expi293 cells, cell lysate
Experimental: as §1, §2, §3, §4, §5

T4 sequence (Q96AD5 1-288 G146T/S158T): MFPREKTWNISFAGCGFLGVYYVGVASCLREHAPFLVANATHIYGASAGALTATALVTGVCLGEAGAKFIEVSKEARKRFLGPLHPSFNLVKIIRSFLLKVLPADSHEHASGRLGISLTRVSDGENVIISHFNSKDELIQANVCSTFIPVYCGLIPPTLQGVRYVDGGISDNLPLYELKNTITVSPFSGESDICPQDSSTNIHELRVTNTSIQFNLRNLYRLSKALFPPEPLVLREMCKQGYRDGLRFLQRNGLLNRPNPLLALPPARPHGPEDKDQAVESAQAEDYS
T2 sequence (Q96AD5 1-288 I93T/S96G/F97C/V101T/S106C/H109R/S111N/N133S/G146T/S158T): as the sequence (Q96AD5 1-288 G146T/S158T) above, with I93T, S96G, F97C, V101T, S106C, H109R, S111N, N133S counted along it
T1 sequence (Q96AD5 1-288): as the sequence (Q96AD5 1-288 G146T/S158T) above, with T146G, T158S counted along it
T3 sequence (Q96AD5 1-288 N133S/G146T/S158T): as the sequence (Q96AD5 1-288 G146T/S158T) above, with N133S counted along it

| Structure (SMILES) | IC50 (human ATGL (aa 1–288)) | inhibition of TAG hydrolase activity [1] | inhibition of TAG hydrolase activity [2] | inhibition of TAG hydrolase activity [3] | IC50 (human ATGL (aa 1–288); read-out: IC50) [nM] |
| --- | --- | --- | --- | --- | --- |
| CN(C)C(=O)Nc1cccc(-c2ccc(N(C)C)cc2)c1 [Atglistatin, reference compound] | ineffective | neither inhibited | neither inhibited | neither inhibited | – |
| CCOc1ccc(-c2cc(OC)cc(C(=O)OC(C)C)n2)cc1 [NG-497] | – | neither inhibited | neither inhibited | neither inhibited | 1300 |
